The values that follow come from article PMC3825844 (Analytical biochemistry, 2013).

Broadly, the Kd is the constant that tells how readily two partners part at equilibrium.

The subject of data set [1] is PXR protein (without SRC). To be noted: affinity selection-mass spectrometry; cited from earlier work.
Data set [2] relates to PXR-SRC (steroid receptor coactivator) tethered protein. Conditions: read-out: hypothetical Kd, circular dichroism; cited from earlier work. For orientation: CD spectra are sensitive to the conformation of chiral molecules.
Data set [3] can be described thus: Solubility observed in TR-FRET assay dilution series. It is filed as physicochemical. To be noted: at 100 μM, TR-FRET assay buffer, […] DMSO. For orientation: In TR-FRET formats the signal depends on donor and acceptor labels being close together.

With `CO[C@H]1/C=C/O[C@@]2(C)Oc3c(C)c(O)c4c(O)c(c(/C=N/N5CCN(C)CC5)c(O)c4c3C2=O)NC(=O)/C(C)=C\C=C\[C@H](C)[C@H](O)[C@@H](C)[C@@H](O)[C@@H](C)[C@H](OC(C)=O)[C@@H]1C` [Rifampicin, 3-(4-methylpiperazinyliminomethyl)rifamycin SV], the results for the Kd in data set [1] and in data set [2] were […] and 540 nM, respectively.

In the case of `Clc1ccccc1C(c1ccccc1)(c1ccccc1)n1ccnc1` [Clotrimazole, 1-[(2-chlorophenyl)diphenylmethyl]-1H-imidazole], the figures for the Kd in data set [1] and in data set [2] were 330 nM and 290 nM, respectively. Also, in data set [3], the solubility in assay result is listed as “incomplete solubility”.
